# Literature values in US20160133992A1, “DRYING OF ELECTROLYTE MIXTURES CONTAINING ACIDS WITH MOLECULAR SIEVES” (BASF SE, priority 2013, published 2016).
# Conditions: not given
row,pKa,SMILES
1,below 4,CCCCC(CCO)S(=O)(=O)O (stereo not shown) [1-Butyl-gamma-hydroxy propane sulfonic acid]
2,below 4,CCC(CCCO)S(=O)(=O)O (stereo not shown) [1-Ethyl-4-hydroxy-1-butane sulfonic acid]
3,below 4,CCC(CCO)S(=O)(=O)O (stereo not shown) [1-Ethyl-gamma-hydroxy propane sulfonic acid]
4,below 4,CC(CCCO)S(=O)(=O)O (stereo not shown) [1-Methyl-4-hydroxy-1-butane sulfonic acid]
5,below 4,CC(CCO)S(=O)(=O)O (stereo not shown) [1-Methyl-gamma-hydroxy propane sulfonic acid]
6,below 4,CCCCCCCCC(CCCO)S(=O)(=O)O (stereo not shown) [1-Octyl-4-hydroxy-1-butane sulfonic acid]
7,below 4,CCCC(CCO)S(=O)(=O)O (stereo not shown) [1-Propyl-gamma-hydroxy propane sulfonic acid]
8,"−1,7",O=S(=O)(O)CCCCO [4-hydroxy-1-butane sulfonic acid]
9,below 4,O=S(=O)(O)CCCCCO [5-hydroxy-1-pentane sulfonic acid]

# Same assay, conditions: listed as compound of formula (b)
row,pKa,SMILES
1,−1.49,O=S(=O)(O)CCCO [gamma-hydroxy propane sulfonic acid]
